From ChEMBL document CHEMBL5260813, “An overview on the recent developments of 1,2,4-triazine derivatives as anticancer compounds” (Eur J Med Chem, 2017)

What was measured:
[1] = system: HepG2; test: Antiproliferative activity against human HepG2 cells assessed as cell growth inhibition; assay type: functional, cell-based
[2] = system: MCF7; test: Antiproliferative activity against human MCF7 cells assessed as inhibition of cell growth; assay type: functional, cell-based
[3] = system: HCT-116; test: Antiproliferative activity against human HCT-116 cells assessed as inhibition of cell growth; assay type: functional, cell-based
[4] = system: OVCAR-4; test: Antiproliferative activity against human OVCAR-4 cells assessed as cell growth inhibition; assay type: functional, cell-based
[5] = system: HL-60; test: Antiproliferative activity against human HL-60 cells assessed as inhibition of cell growth under normoxia condition incubated for 72 hrs by MTT assay; assay type: functional, cell-based; conditions: HL-60, 72 h
[6] = system: Bel-7402; test: Antiproliferative activity against human Bel-7402 cells assessed as inhibition of cell growth under normoxia condition incubated for 72 hrs by MTT assay; assay type: functional, cell-based; conditions: Bel-7402, 72 h
[7] = system: ECa-109 cell line; test: Antiproliferative activity against human Eca-109 cells assessed as inhibition of cell growth under normoxia condition incubated for 72 hrs by MTT assay; assay type: functional, cell-based; conditions: ECa-109, 72 h
[8] = system: PC-3; test: Antiproliferative activity against human PC-3 cells assessed as inhibition of cell growth under normoxia condition incubated for 72 hrs by MTT assay; assay type: functional, cell-based; conditions: PC-3, 72 h
[9] = system: MCF7; test: Antiproliferative activity against human MCF7 cells assessed as inhibition of cell growth under normoxia condition incubated for 72 hrs by MTT assay; assay type: functional, cell-based; conditions: MCF7, 72 h
[10] = system: HL-60; test: Antiproliferative activity against human HL-60 cells assessed as inhibition of cell growth under hypoxia condition incubated for 72 hrs by MTT assay; assay type: functional, cell-based; conditions: HL-60, 72 h
[11] = system: Bel-7402; test: Antiproliferative activity against human Bel-7402 cells assessed as inhibition of cell growth under hypoxia condition incubated for 72 hrs by MTT assay; assay type: functional, cell-based; conditions: Bel-7402, 72 h
[12] = system: ECa-109 cell line; test: Antiproliferative activity against human Eca-109 cells assessed as inhibition of cell growth under hypoxia condition incubated for 72 hrs by MTT assay; assay type: functional, cell-based; conditions: ECa-109, 72 h
[13] = system: MCF7; test: Antiproliferative activity against human MCF7 cells assessed as inhibition of cell growth under hypoxia condition incubated for 72 hrs by MTT assay; assay type: functional, cell-based; conditions: MCF7, 72 h
[14] = system: PC-3; test: Antiproliferative activity against human PC-3 cells assessed as inhibition of cell growth under hypoxia condition incubated for 72 hrs by MTT assay; assay type: functional, cell-based; conditions: PC-3, 72 h
[15] = Ratio of IC50 for antiproliferative activity against human HL-60 cells assessed as inhibition of cell growth under normoxia condition to IC50 for antiproliferative activity against human HL-60 cells assessed as inhibition of cell growth under hypoxia condition; assay type: functional
[16] = Ratio of IC50 for antiproliferative activity against human Eca-109 cells assessed as inhibition of cell growth under normoxia condition to IC50 for antiproliferative activity against human Eca-109 cells assessed as inhibition of cell growth under hypoxia condition; assay type: functional
[17] = Ratio of IC50 for antiproliferative activity against human MCF7 cells assessed as inhibition of cell growth under normoxia condition to IC50 for antiproliferative activity against human MCF7 cells assessed as inhibition of cell growth under hypoxia condition; assay type: functional
[18] = Ratio of IC50 for antiproliferative activity against human PC-3 cells assessed as inhibition of cell growth under normoxia condition to IC50 for antiproliferative activity against human PC-3 cells assessed as inhibition of cell growth under hypoxia condition; assay type: functional
[19] = system: HT-29; test: Antiproliferative activity against human HT-29 cells assessed as inhibition of cell growth by SRB assay; assay type: functional, cell-based
[20] = system: HT-29; test: Potency index, ratio of tirapazamine IC50 to compound IC50 for antiproliferative activity against human HT-29 cells; assay type: functional
[21] = molecular target: Epidermal growth factor receptor (Homo sapiens, UniProt P00533); test: Inhibition of EGFR (unknown origin)
Sequence of Epidermal growth factor receptor (P00533 whole entry): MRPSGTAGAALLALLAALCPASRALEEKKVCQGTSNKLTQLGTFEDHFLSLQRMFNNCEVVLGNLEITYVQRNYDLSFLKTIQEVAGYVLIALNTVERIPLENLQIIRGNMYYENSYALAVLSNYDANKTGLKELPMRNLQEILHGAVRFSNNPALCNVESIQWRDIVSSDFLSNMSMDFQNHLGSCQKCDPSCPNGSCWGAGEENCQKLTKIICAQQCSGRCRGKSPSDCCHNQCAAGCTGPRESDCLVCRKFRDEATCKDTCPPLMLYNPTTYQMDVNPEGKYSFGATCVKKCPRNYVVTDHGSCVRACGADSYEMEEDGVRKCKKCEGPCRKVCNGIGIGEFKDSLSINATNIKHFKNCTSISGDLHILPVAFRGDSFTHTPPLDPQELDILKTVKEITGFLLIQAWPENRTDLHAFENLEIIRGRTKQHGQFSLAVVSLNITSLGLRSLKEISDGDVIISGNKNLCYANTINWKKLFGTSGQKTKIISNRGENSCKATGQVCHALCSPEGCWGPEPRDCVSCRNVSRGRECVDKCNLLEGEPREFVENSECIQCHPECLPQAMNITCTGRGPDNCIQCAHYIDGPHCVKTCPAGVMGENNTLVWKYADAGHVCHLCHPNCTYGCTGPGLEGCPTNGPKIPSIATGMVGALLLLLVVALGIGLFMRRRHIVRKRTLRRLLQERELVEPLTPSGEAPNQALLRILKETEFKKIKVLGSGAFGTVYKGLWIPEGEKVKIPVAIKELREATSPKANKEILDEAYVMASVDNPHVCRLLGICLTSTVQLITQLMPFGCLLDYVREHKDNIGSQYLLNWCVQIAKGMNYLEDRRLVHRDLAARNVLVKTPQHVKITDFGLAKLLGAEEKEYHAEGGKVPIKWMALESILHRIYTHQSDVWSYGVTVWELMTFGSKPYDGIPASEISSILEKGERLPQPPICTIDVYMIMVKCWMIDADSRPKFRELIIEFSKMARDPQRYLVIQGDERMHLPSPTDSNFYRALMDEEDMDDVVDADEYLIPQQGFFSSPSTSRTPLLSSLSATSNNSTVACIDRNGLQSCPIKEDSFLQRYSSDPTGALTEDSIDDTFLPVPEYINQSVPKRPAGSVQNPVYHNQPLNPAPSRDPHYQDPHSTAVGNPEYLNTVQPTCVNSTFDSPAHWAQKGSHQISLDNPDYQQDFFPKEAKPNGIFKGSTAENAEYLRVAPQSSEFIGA

[22] = molecular target: Vascular endothelial growth factor receptor 2 (Homo sapiens, UniProt P35968); test: Inhibition of VEGFR-2 (unknown origin)
Sequence of Vascular endothelial growth factor receptor 2 (P35968 whole entry): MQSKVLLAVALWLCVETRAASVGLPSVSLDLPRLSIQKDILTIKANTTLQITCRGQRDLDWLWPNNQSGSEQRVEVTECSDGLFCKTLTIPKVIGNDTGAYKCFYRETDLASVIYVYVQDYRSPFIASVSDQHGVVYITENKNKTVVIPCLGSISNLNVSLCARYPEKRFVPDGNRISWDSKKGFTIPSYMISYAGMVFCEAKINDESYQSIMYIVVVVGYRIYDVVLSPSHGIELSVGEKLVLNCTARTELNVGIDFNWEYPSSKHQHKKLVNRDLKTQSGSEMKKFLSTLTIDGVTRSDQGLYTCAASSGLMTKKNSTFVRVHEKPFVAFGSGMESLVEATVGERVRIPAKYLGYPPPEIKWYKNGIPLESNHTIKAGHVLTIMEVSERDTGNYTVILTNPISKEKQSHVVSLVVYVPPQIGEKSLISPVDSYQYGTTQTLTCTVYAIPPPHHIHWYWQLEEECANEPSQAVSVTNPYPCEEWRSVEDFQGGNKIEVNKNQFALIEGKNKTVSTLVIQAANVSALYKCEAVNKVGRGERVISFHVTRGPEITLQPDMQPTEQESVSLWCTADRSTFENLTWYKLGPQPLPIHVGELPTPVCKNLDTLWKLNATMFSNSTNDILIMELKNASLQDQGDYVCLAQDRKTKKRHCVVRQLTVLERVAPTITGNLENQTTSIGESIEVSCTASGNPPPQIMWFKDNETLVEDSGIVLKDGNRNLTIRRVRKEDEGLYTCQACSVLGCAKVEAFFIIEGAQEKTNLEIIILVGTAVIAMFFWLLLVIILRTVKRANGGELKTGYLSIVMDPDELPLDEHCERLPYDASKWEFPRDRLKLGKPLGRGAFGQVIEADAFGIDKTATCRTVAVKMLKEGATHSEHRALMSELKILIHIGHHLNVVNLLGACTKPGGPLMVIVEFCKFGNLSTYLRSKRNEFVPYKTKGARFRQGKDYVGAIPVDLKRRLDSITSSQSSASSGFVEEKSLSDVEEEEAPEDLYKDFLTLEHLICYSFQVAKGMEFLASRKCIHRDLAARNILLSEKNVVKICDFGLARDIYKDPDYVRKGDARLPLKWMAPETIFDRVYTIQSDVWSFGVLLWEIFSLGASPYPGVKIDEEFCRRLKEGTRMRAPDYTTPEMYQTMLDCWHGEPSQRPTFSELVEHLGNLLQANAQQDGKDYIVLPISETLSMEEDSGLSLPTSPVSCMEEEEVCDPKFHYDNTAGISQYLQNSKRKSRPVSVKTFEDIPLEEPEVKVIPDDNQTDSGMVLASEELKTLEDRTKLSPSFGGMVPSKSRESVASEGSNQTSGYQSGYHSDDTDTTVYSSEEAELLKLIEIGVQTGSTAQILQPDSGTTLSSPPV

[23] = Antiproliferative activity against human DiFi cells assessed as inhibition of cell growth by MTS assay
[24] = system: BT-474; test: Antiproliferative activity against human BT-474 cells assessed as inhibition of cell growth; assay type: functional, cell-based
[25] = system: MCF7; test: Cytotoxicity against human MCF7 cells assessed as inhibition of cell growth incubated for 72 hrs by MTT assay; assay type: functional, cell-based; conditions: MCF7, 72 h
[26] = system: HL-60; test: Antiproliferative activity against human HL-60 cells assessed as inhibition of cell growth incubated for 72 hrs by MTT assay; assay type: functional, cell-based; conditions: HL-60, 72 h
[27] = system: MOLT-4; test: Antiproliferative activity against human MOLT-4 cells assessed as inhibition of cell growth incubated for 72 hrs by MTT assay; assay type: functional, cell-based; conditions: MOLT-4, 72 h
[28] = molecular target: T1, Tyrosine-protein kinase SYK (Homo sapiens, UniProt P43405); test: Inhibition of human SYK using 5-Fluo-Ahx-GAPDYENLQELNKK-Amid as substrate in presence of ATP by microfluidic mobility shift assay
[29] = molecular target: T1, Tyrosine-protein kinase SYK; test: Inhibition of SYK in human Ramos cells assessed as reduction in anti IgM-induced phosphorylation of BLNK by flow cytometry assay; assay type: cell-based
[30] = system: Panel NCI-60 (60 carcinoma cell lines); test: Antiproliferative activity against human Panel NCI-60 (60 carcinoma cell lines) assessed as cell growth inhibition incubated for 48 hrs by SRB assay; assay type: functional

With `Nn1c(SC2Sc3nnc(/C=C/c4cccs4)c(=O)n3NC2=O)nnc(/C=C/c2cccs2)c1=O` (centres undefined) the IC50 [1] was 8.79 µM, the IC50 [2] was 8.79 µM and the IC50 [3] was 8.79 µM.

In the case of `CCOC(=O)c1nnc2c(C#N)c(C)c(-c3ccccc3)n2c1N`, the IC50 [4] is reported as 2770 nM.

With `[O-][n+]1nc(Nc2ccccc2)[n+]([O-])c2ccc(Cl)cc21` the IC50 [5] was 200 nM, the IC50 [6] was 200 nM and the IC50 [7] was 200 nM. For the same compound, the IC50 [8] was 200 nM, the IC50 [9] was 200 nM and the IC50 [10] was 200 nM. It also gave an IC50 [11] of 200 nM, an IC50 [12] of 200 nM and an IC50 [13] of 200 nM. For the same compound, the IC50 [14] was 200 nM, the “Ratio IC50” value [15] was 6.9 and the “Ratio IC50” value [16] was 2.8. For the same compound, the “Ratio IC50” value [17] was 3 and the “Ratio IC50” value [18] was 1.3.

In the case of `CN(C)CCNc1nc2ccccc2[n+]([O-])n1`, the IC50 [19] is reported as > 1000 nM and the “Ratio IC50” value [20] is reported as 3.9.

In the case of `Fc1ccc(Nc2ncnn3cccc23)cc1Cl`, the IC50 [21] is reported as > 10 µM, the IC50 [22] is reported as 118 nM and the IC50 [23] is reported as 1600 nM.

`CCn1nc(-c2cccs2)nc2c(=O)n(C)c(=O)nc1-2` showed an IC50 [24] of 900 nM.

For `Nc1nc2ccccc2[n+]([O-])n1`, the IC50 [19] was > 500 nM and the “Ratio IC50” value [20] was 2.

Work on `Cc1nc2c(=O)n(C)c(=O)nc-2n(C)n1` yielded an IC50 [24] of 900 nM.

Compound `O=c1c(/C=C/c2cccs2)nnc(S)n1NC(=S)Nc1ccccc1` has an IC50 [1] of 8.79 µM, an IC50 [2] of 8.79 µM and an IC50 [3] of 8.79 µM.

With `Nn1c(S)nnc(/C=C/c2cccs2)c1=O` the IC50 [1] was 8.79 µM, the IC50 [2] was 8.79 µM and the IC50 [3] was 8.79 µM.

With `CN(C)CCCNc1nc2ccccc2[n+]([O-])n1` the IC50 [19] was 830 nM and the “Ratio IC50” value [20] was 1.2.

With `Clc1ccc(CSc2nnc3c(n2)-c2cccc4cccc-3c24)cc1Cl` the IC50 [25] was 30 µM, the IC50 [26] was 30 µM and the IC50 [27] was 30 µM.

For `COc1nc2ccccc2[n+]([O-])n1`, the IC50 [19] was > 300 nM and the “Ratio IC50” value [20] was 3.3.

In the case of `O=C1CN2C(=O)/C(=C/c3ccc([N+](=O)[O-])cc3)N=C(c3ccccc3)N2C(=S)N1`, the IC50 [1] is reported as 2.67 µM.

In the case of `NC(=O)c1nnc(N[C@@H]2CCCC[C@@H]2N)nc1Nc1cccc2[nH]ncc12`, the IC50 [28] is reported as 0.8 nM and the IC50 [29] is reported as 14 nM.

`O=C1CNN(CSc2nc3ccc(I)cc3c(=O)n2Cc2ccccc2)C=N1` showed a GI50 [30] of 22.6 µM, a TGI [30] of 61.4 µM and a CC50 ([30]; read-out: LC50 (the source's name)) of 89.3 µM.

Work on `Cn1ncc2c(Nc3nc(N[C@@H]4CCCC[C@@H]4N)nnc3C(N)=O)cccc21` yielded an IC50 [28] of 0.8 nM and an IC50 [29] of 14 nM.

For `CCOC(=O)c1nnc2c(C#N)c(-c3ccccc3)c(C)n2c1N`, the IC50 [4] was 2770 nM.

With `Cc1ccc2c(Nc3ccc(F)c(Cl)c3)ncnn12` the IC50 [21] was > 2 µM, the IC50 [22] was 3250 nM and the IC50 [23] was 1600 nM.

In the case of `O=c1c(/C=C/c2cccs2)nnc(S)n1/N=C/c1ccccc1`, the IC50 [1] is reported as 8.79 µM, the IC50 [2] is reported as 8.79 µM and the IC50 [3] is reported as 8.79 µM.

For `Cc1c(-c2ccccc2)c(C#N)c2nnc(C#N)c(N)n12`, the IC50 [4] was 2770 nM.

Work on `Clc1ccc(CSc2nnc3c(n2)-c2cccc4cccc-3c24)cc1` yielded an IC50 [25] of 30 µM, an IC50 [26] of 30 µM and an IC50 [27] of 30 µM.

`NC(=O)c1nnc(N[C@@H]2CCCC[C@@H]2N)nc1Nc1cc(F)cc2cc[nH]c12` gave an IC50 [28] of 0.8 nM and an IC50 [29] of 14 nM.

In the case of `CCn1nc(-c2ccccc2)nc2c(=O)n(C)c(=O)nc1-2`, the IC50 [24] is reported as 900 nM.

For `c1ccc(CSc2nnc3c(n2)-c2cccc4cccc-3c24)cc1`, the IC50 [25] was 30 µM, the IC50 [26] was 30 µM and the IC50 [27] was 30 µM.

Compound `O=c1c(/C=C/c2cccs2)nnc(S)n1/N=C/c1cccs1` has an IC50 [1] of 8.79 µM, an IC50 [2] of 8.79 µM and an IC50 [3] of 8.79 µM.

In the case of `CC(=O)c1nnc2c(C#N)c(C)c(-c3ccccc3)n2c1C`, the IC50 [4] is reported as 2770 nM.
